Laboratory results: patent US10662198B2, “Polymorphic form of compound, preparation method and use thereof” (QILU PHARMACEUTICAL CO., LTD., priority 2017, dated 2020)

Assays:
Format in all cases: physicochemical
[1] = Stability test at room temperature; details: for Purity after 180 days / Crystalline form after 180 days: sealed medicinal low density polyethylene bags; for Purity after 180 days: HPLC; for Crystalline form after 180 days: XRPD
Text: The crystalline form II prepared in example 2, crystalline form IV prepared in example 4, crystalline form VI prepared in example 8, and crystalline form VII prepared in example 10 were respectively placed in medicinal low density polyethylene bags, sealed, and maintained at room temperature for 180 days, detected by PANalytical X-ray powder diffractometer for its XRPD, and by high performance liquid chromatography for its purity.

[2] = Stability test at high temperature
Description: The crystalline form II prepared in example 2 was subjected to a stability test at 60° C., and the results were shown in Table 7 below.

[3] = Stability test under high humidity
Text: The crystalline form IV prepared in example 4 was subjected to a stability test at 92.5% RH, and the results were shown in Table 8 below.

purity and crystalline form after 180 days (in words) [1] | Purity after 180 days [1] [%] | Crystalline form after 180 days [1] | HPLC purity (%) Initial ([2]; 60° C. test, initial) [%] | Crystalline form After 10 days ([2]; 60° C., after 10 days) | HPLC purity (%) After 10 days ([2]; 60° C., after 10 days) [%] | change in purity and crystalline form (in words) ([2]; high temperature condition, 10 days) | HPLC purity (%) Initial ([3]; 92.5% RH test, initial) [%] | HPLC purity (%) After 10 days ([3]; 92.5% RH, after 10 days) [%] | change in purity and crystal form (in words) ([3]; high humidity condition, 10 days) | purity, color, and properties on preservation at high humidity (in words) ([3]; relative humidity of up to 92.5% RH) | SMILES
remained unchanged | 99.5 | unchanged | 96.8 | crystalline form unchanged | 96.6 | no change in purity and crystalline form |  |  |  |  | COC(=O)C1=C2C[C@H](NS(N)(=O)=O)CN2C(c2nccs2)=N[C@H]1c1ccc(F)c(F)c1F [Crystalline form II, methyl (3R,6S)-6-aminosulfonylamino-1-(thiazol-2-yl)-3-(2,3,4-trifluorophenyl)-3,5,6,7-tetrahydropyrrolo[1,2-c]pyrimidin-4-formate]
remained unchanged | 99.3 | unchanged |  |  |  |  | 99.2 | 99.1 | no change in purity and crystal form | purity, color, and properties unchanged | COC(=O)C1=C2C[C@H](NS(N)(=O)=O)CN2C(c2nccs2)=N[C@H]1c1ccc(F)c(F)c1F [Crystalline form IV, methyl (3R,6S)-6-aminosulfonylamino-1-(thiazol-2-yl)-3-(2,3,4-trifluorophenyl)-3,5,6,7-tetrahydropyrrolo[1,2-c]pyrimidin-4-formate]
remained unchanged | 99.7 | unchanged |  |  |  |  |  |  |  |  | COC(=O)C1=C2C[C@H](NS(N)(=O)=O)CN2C(c2nccs2)=N[C@H]1c1ccc(F)c(F)c1F [Crystalline form VI, methyl (3R,6S)-6-aminosulfonylamino-1-(thiazol-2-yl)-3-(2,3,4-trifluorophenyl)-3,5,6,7-tetrahydropyrrolo[1,2-c]pyrimidin-4-formate]
remained unchanged | 99.5 | unchanged |  |  |  |  |  |  |  |  | COC(=O)C1=C2C[C@H](NS(N)(=O)=O)CN2C(c2nccs2)=N[C@H]1c1ccc(F)c(F)c1F [Crystalline form VII, methyl (3R,6S)-6-aminosulfonylamino-1-(thiazol-2-yl)-3-(2,3,4-trifluorophenyl)-3,5,6,7-tetrahydropyrrolo[1,2-c]pyrimidin-4-formate]
